In ChEMBL document CHEMBL1944547, “Ethionamide boosters. 2. Combining bioisosteric replacement and structure-based drug design to solve pharmacokinetic issues in a series of potent 1,2,4-oxadiazole EthR inhibitors” (J Med Chem, 2012):
Converted amounts (≈) assume the structure as drawn.

Tests used:
[1] = in vitro; conditions: CD-1, mouse, liver microsomes
Description: Half life in CD-1 mouse liver microsomes at 1 uM by LC-MS/MS analysis

[2] = Solubility of the compound in PBS buffer at pH 7.4 after 24 hrs by LC-MS analysis; assay type: physicochemical

| SMILES | half-life at 1 µM [1] [min] | solubility at 24 h [2] [µg/mL] |
| --- | --- | --- |
| COc1ccc2nc(-c3noc(C4CCN(C(=O)CCC(F)(F)F)CC4)n3)sc2c1 | 6 | 6 (≈ 13.6 µM) |
| O=C(CCC(F)(F)F)N1CCC(c2nc(-c3ccccc3)no2)CC1 | – | 40 (≈ 113 µM) |
| O=C(CCCC(F)(F)F)N1CCC(c2nc(-c3nccs3)no2)CC1 | 81 | – |
| O=C(CCC(F)(F)F)N1CCC(c2nc(-c3cccs3)no2)CC1 | 5 | – |
| O=C(CCC(F)(F)F)N1CCC(c2nc(-c3nccs3)no2)CC1 | 34 | 300 (≈ 832 µM) |
